A word on the IC50: it is the point on the concentration scale where inhibition reaches its midpoint.

IDO1, sequence (P14902 whole entry): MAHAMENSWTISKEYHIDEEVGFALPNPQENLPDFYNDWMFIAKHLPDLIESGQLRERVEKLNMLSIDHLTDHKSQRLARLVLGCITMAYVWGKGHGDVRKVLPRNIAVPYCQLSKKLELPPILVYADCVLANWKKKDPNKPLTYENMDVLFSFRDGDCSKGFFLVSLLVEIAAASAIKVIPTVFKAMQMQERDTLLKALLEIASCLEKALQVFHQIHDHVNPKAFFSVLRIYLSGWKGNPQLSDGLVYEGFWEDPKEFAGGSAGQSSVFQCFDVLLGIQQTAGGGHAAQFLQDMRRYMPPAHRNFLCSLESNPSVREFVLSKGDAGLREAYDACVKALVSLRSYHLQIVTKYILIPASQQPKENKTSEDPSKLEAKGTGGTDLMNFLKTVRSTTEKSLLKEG

This experiment addresses IDO1 (Homo sapiens, UniProt P14902). The experiment can be described thus: IDO1 Cellular Assay in HeLa Cells Stimulated with IFNγ. Format: cell-based. The conditions noted are these: read-out: HeLa Cell Potency, IC50.
For `C[C@@H]1CN(C(=O)c2nn(CC(=O)N3CCN(c4cccc5c4CC5)CC3)c3c2CCC3)C[C@H](C)O1` [Example 446, 1-(4-(bicyclo[4.2.0]octa-1(6),2,4-trien-2-yl)piperazin-1-yl)-2-(3-((2R,6S)-2,6-dimethylmorpholine-4-carbonyl)-5,6-dihydrocyclopenta[c]pyrazol-1(4H)-yl)ethanone], the IC50 is 206 nM.

As to `Cc1cccc(N2CCN(C(=O)Cn3nc(C(=O)N4C[C@@H](C)O[C@@H](C)C4)c4c3CCC4)CC23CC3)c1C` [Example 447, 2-(3-((2R,6S)-2,6-dimethylmorpholine-4-carbonyl)-5,6-dihydrocyclopenta[c]pyrazol-1(4H)-yl)-1-(4-(2,3-dimethylphenyl)-4,7-diazaspiro[2.5]octan-7-yl)ethanone], the 50% inhibitory concentration (IC50) was 12.7 nM.

Take `Cc1cccc(N2CCN(C(=O)Cn3nc(C(=O)N4CCC(O)C(CO)C4)c4c3CCCC4)CC2)c1C` (stereo not shown) [Example 452, 1-(4-(2,3-dimethylphenyl)piperazin-1-yl)-2-(3-(4-hydroxy-3-(hydroxymethyl)piperidine-1-carbonyl)-4,5,6,7-tetrahydro-1H-indazol-1-yl) ethanone]: the concentration for half-maximal inhibition (IC50) stood at 1.05 nM.

For `CC(=O)NC1CCN(C(=O)c2nn(CC(=O)N3CCN(c4cccc(C)c4Cl)CC3)c3c2CCCC3)CC1` [Example 453, N-(1-(1-(2-(4-(2-chloro-3-methylphenyl)piperazin-1-yl)-2-oxoethyl)-4,5,6,7-tetra hydro-1H-indazole-3-carbonyl)piperidin-4-yl) acetamide], the IC50 is 0.59 nM.

`Cc1cccc(N2CCN(C(=O)Cn3nc(C(=O)N4CCC(O)(CO)CC4)c4c3CCCC4)CC2)c1C` [Example 455, 1-(4-(2,3-dimethylphenyl)piperazin-1-yl)-2-(3-(4-hydroxy-4-(hydroxymethyl)piperidine-1-carbonyl)-4,5,6,7-tetrahydro-1H-indazol-1-yl)ethanone]: the IC50 worked out at 3.32 nM.

In the case of `Cc1c(F)ccc(N2CCN(C(=O)Cn3nc(C(=O)N4CCC(F)(CO)CC4)c4c3CCCC4)CC2)c1C` [Example 458, 1-(4-(4-fluoro-2,3-dimethylphenyl)piperazin-1-yl)-2-(3-(4-fluoro-4-(hydroxy-methyl)piperidine-1-carbonyl)-4,5,6,7-tetrahydro-1H-indazol-1-yl)ethanone], the half-inhibitory concentration (IC50) stood at 0.95 nM.

For the compound `Cc1c(F)ccc(N2CCN(C(=O)Cn3nc(C(=O)N4CC[C@H](O)[C@@H](F)C4)c4c3CCCC4)CC2)c1C` [Example 459, 1-(4-(4-fluoro-2,3-dimethylphenyl)piperazin-1-yl)-2-(3-((3S,4S)-3-fluoro-4-hydroxypiperidine-1-carbonyl)-4,5,6,7-tetrahydro-1H-indazol-1-yl)ethanone], the concentration for half-maximal inhibition (IC50) was 1.17 nM.

For the compound `Cc1cccc(N2CCN(C(=O)Cn3nc(C(=O)N4CCC(O)CC4(C)C)c4c3CCCC4)CC2)c1C` (stereo not shown) [Example 461, 1-(4-(2,3-dimethylphenyl)piperazin-piperazin-1-yl)-2-(3-(4-hydroxy-2,2-dimethylpiperidine-1-carbonyl)-4,5,6,7-tetrahydro-1H-indazol-1-yl)ethanone], the half-maximal inhibitory concentration (IC50) worked out at 1.25 nM.

Regarding `Cc1cccc(N2CCN(C(=O)Cn3nc(C(=O)N4CCC(F)(CO)CC4)c4c3CCCC4)CC2)c1C` [Example 467, 1-(4-(2,3-dimethylphenyl)piperazin-1-yl)-2-(3-(4-fluoro-4-(hydroxymethyl)piperidine-1-carbonyl)-4,5,6,7-tetrahydro-1H-indazol-1-yl)ethanone], the 50% inhibitory concentration (IC50) amounted to 1.87 nM.

Consider `Cc1cccc(N2CCN(C(=O)Cn3nc(C(=O)N4CCC(NC(=O)OC(C)(C)C)CC4)c4c3CCCC4)CC2)c1C` [Example 469, tert-butyl (1-(1-(2-(4-(2,3-dimethylphenyl)piperazin-1-yl)-2-oxoethyl)-4,5,6,7-tetrahydro-1H-indazole-3-carbonyl)piperidin-4-yl) carbamate], for which the 50% inhibitory concentration (IC50) came to 2.48 nM.

The values are drawn from patent publication US12264134B2 (Merck Sharp & Dohme LLC, priority 2018, dated 2025).
